Laboratory results from the Kinase Knowledgebase extract (Sharma et al. 2016).

Target: MAPK14 (human) (UniProt Q16539)
Test: Inhibition of MAPK14 Kinase Activity
Conditions: for inhibition: concentration not given here

Chain of MAPK14 (human) (Q16539 whole entry, looked up): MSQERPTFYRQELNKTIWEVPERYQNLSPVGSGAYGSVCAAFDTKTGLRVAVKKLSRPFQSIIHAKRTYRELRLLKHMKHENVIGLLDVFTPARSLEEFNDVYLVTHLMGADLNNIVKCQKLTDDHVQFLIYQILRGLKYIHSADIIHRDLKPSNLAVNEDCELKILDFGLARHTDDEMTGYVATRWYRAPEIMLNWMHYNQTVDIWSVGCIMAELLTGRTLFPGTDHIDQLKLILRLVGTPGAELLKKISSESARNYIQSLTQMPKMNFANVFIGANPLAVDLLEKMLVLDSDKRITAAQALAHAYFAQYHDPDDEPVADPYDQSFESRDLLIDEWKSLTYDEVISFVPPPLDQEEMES

| SMILES | IC50 [µM] | inhibition [%] |
| --- | --- | --- |
| CC(C)(C)c1cc(C(=O)N2CCS(=O)(=O)CC2)c(NC(=O)Nc2cccc3c2OCO3)s1 | < 5 | – |
| CC(C)(C)c1cc(C(=O)N2CCNC(=O)CC2)c(NC(=O)Nc2ccnc3ccccc23)s1 | – | 51 to 75 |
| CC(C)(C)c1nc(NC(=O)Nc2cccc3ccccc23)c(C(=O)N2CCNC(=O)CC2)s1 | – | 76 to 100 |
| Cc1c(Cl)cccc1NC(=O)Nc1sc(C(C)(C)C)cc1C(=O)N1CCNC(=O)C1(C)CCO (stereo not drawn) | < 5 | – |
| CN(C)CCN1CCN(C(=O)c2sc(C(C)(C)C)cc2NC(=O)Nc2ccc(F)c(Cl)c2Cl)CCC1=O | < 5 | – |
| CN(C)CCN1CCN(C(=O)c2cc(C(C)(C)C)sc2NC(=O)Nc2cccnc2Cl)C(C)(C)C1=O | < 5 | – |
| COC(=O)CN1CCN(C(=O)c2cc(C(C)(C)C)sc2NC(=O)Nc2ccc(F)c(Cl)c2Cl)C(C)(C)C1=O | < 5 | – |
| CC(C)(C)c1cc(C(=O)N2CCNC(=O)CC2)c(NC(=O)Nc2cc(F)cc(F)c2)s1 | < 5 | – |
| CNC(=O)Nc1cc(C(C)(C)C)sc1C(=O)N1CCNC(=O)CC1 | – | 0 to 25 |
| CCOC(=O)C1(C)C(=O)NCCN1C(=O)c1cc(C(C)(C)C)sc1NC(=O)Nc1cccc(Cl)c1Cl (stereo not drawn) | < 5 | – |
| CC(C)c1ccccc1NC(=O)Nc1sc(C(C)(C)C)cc1C(=O)N1CCNC(=O)CC1 | < 5 | – |
| CCN(CC)CCNC(=O)CN1CCN(C(=O)c2cc(C(C)(C)C)sc2NC(=O)Nc2cccc(Cl)c2Cl)C(C)(C)C1=O | < 5 | – |
| C[C@@H]1C(=O)NCCN1C(=O)c1cc(C(C)(C)C)sc1NC(=O)Nc1cccc(Cl)c1Cl | < 5 | – |
| COC(=O)CN1CCN(C(=O)c2cc(C(C)(C)C)sc2NC(=O)Nc2cccc(Cl)c2Cl)CC1 | < 5 | – |
| CC1(C)C(=O)NCCN1C(=O)c1oc(C(F)(F)F)cc1NC(=O)Nc1ccc(F)c(Cl)c1Cl | < 5 | – |
| CN(C)CCN1CCN(C(=O)c2sc(C(C)(C)C)cc2NC(=O)Nc2ccc(F)c(Cl)c2Cl)C(C)(C)C1=O | < 5 | – |
| CCc1ccccc1NC(=O)Nc1sc(C(C)(C)C)cc1C(=O)N1CCNC(=O)CC1 | < 5 | – |
| CCC1(C)C(=O)N(CCN(C)C)CCN1C(=O)c1cc(C(C)(C)C)sc1NC(=O)Nc1ccc(F)cc1 (stereo not drawn) | < 5 | – |
| CC(C)(C)c1cc(C(=O)N2CCC(=O)N(CC(N)=O)CC2)c(NC(=O)Nc2cccc(Cl)c2Cl)s1 | – | 76 to 100 |
| CCC1(C)C(=O)N(CC(=O)NCCN(C)C)CCN1C(=O)c1cc(C(C)(C)C)sc1NC(=O)Nc1ccccc1C(F)(F)F (stereo not drawn) | < 5 | – |
| CC(C)(C)c1cc(C(=O)N2CCNC(=O)C2)c(NC(=O)Nc2cccc(Cl)c2Cl)s1 | < 5 | – |

| SMILES | IC50 [µM] | inhibition [%] |
| --- | --- | --- |
| CCc1ccccc1NC(=O)Nc1sc(C(C)(C)C)cc1C(=O)N1CCN(CCN(C)C)C(=O)C1(C)C | < 5 | – |
| CON(C)C(=O)CN1CCN(C(=O)c2cc(C(C)(C)C)sc2NC(=O)Nc2ccc(F)c(F)c2Cl)CCC1=O | < 5 | – |
| Cc1ccccc1NC(=O)Nc1sc(C(C)(C)C)cc1C(=O)N1CCNC(=O)CC1 | < 5 | – |
| CC(C)(C)c1cc(C(=O)N2CCNC(=O)C2(C)C)c(NC(=O)Nc2ccc(C#N)c(Cl)c2Cl)s1 | < 5 | – |
| CC(C)(C)c1cc(C(=O)N2CCNC(=O)C2(C)CC(N)=O)c(NC(=O)Nc2cccc(Cl)c2Cl)s1 (stereo not drawn) | < 5 | – |
| COC(=O)c1ccc(NC(=O)Nc2cc(C(C)(C)C)sc2C(=O)N2CCNC(=O)C2(C)C)c(Cl)c1 | < 5 | – |
| CC(C)(C)c1cc(C(=O)N2CCS(=O)(=O)CC2)c(NC(=O)Nc2ccc(F)c(Cl)c2Cl)s1 | < 5 | – |
| CN(C)CCN1CCN(C(=O)c2cc(C(C)(C)C)sc2NC(=O)Nc2cccc(Cl)c2Cl)CC(C)(C)C1=O | < 5 | – |
| CN(C)CCN1CCN(C(=O)c2[nH]c(C(C)(C)C)cc2NC(=O)Nc2ccc(F)c(Cl)c2Cl)CCC1=O | < 5 | – |
| CC(C)(C)c1cc(C(=O)N2CCS(=O)(=O)CC2)c(NC(=O)Cc2cccc(Cl)c2Cl)s1 | < 5 | – |
| CN(C)CCCCCN1CCN(C(=O)c2cc(C(C)(C)C)sc2NC(=O)Nc2cccc(Cl)c2Cl)C(C)(C)C1=O | < 5 | – |
| CCC1C(=O)NCCN1C(=O)c1cc(C(C)(C)C)sc1NC(=O)Nc1ccc(F)c(Cl)c1Cl (stereo not drawn) | < 5 | – |
| CC(C)(C)c1nc(C(=O)N2CCNC(=O)C2(C)C)c(NC(=O)Nc2cccc(Cl)c2Cl)s1 | < 5 | – |
| Cc1noc(CN2CCN(C(=O)c3cc(C(C)(C)C)sc3NC(=O)Nc3cccc(Cl)c3Cl)C(C)(C)C2=O)n1 | < 5 | – |
| CC(C)(C)c1cc(C(=O)N2CCNC(=O)C2)c(NC(=O)Nc2ccc3c(c2)OCO3)s1 | < 5 | – |
| CCC1(C)C(=O)NCCN1C(=O)c1cc(C(C)(C)C)sc1NC(=O)Nc1ccc(F)cc1Cl (stereo not drawn) | < 5 | – |
| CCC1(C)C(=O)N(CC(=O)NCCN(C)C)CCN1C(=O)c1sc(C(C)(C)C)cc1NC(=O)Nc1cccc(Cl)c1Cl (stereo not drawn) | < 5 | – |
| CN(C)CCN1CCN(C(=O)c2cc(C(C)(C)C)sc2NC(=O)Nc2cccnc2Cl)CCC1=O | < 5 | – |
| CC(C)(C)c1cc(NC(=O)Nc2ccc(Cl)c(Cl)c2)c(C(=O)N2CCNC(=O)CC2)s1 | – | 76 to 100 |
| CN(C)CCN1CCN(C(=O)c2cc(C(C)(C)C)sc2NC(=O)Nc2ccccc2C(C)(C)C)C(C)(C)C1=O | < 5 | – |
| COC(=O)CN1CCN(C(=O)c2nc(C(C)(C)C)sc2NC(=O)Nc2cccc(Cl)c2Cl)C(C)(C)C1=O | < 5 | – |

| SMILES | IC50 [µM] | inhibition [%] |
| --- | --- | --- |
| CC(C)(C)c1cc(C(=O)N2CCNC(=O)C2)c(NC(=O)Nc2cccc3ccccc23)s1 | – | 76 to 100 |
| Cc1noc(CC2(C)C(=O)NCCN2C(=O)c2cc(C(C)(C)C)sc2NC(=O)Nc2ccc(F)c(Cl)c2Cl)n1 (stereo not drawn) | < 5 | – |
| CNC(=O)CN1CCN(C(=O)c2cc(C(C)(C)C)sc2NC(=O)Nc2cccc(Cl)c2Cl)C(C)(C)C1=O | < 5 | – |
| COc1ccc(CCC(=O)N2CCN(C(=O)c3cc(C(C)(C)C)sc3NC(=O)Nc3cccc(Cl)c3Cl)CC2)cc1 | < 5 | – |
| CCOC(=O)CN1CCN(C(=O)c2cc(NC(=O)Nc3ccc(F)c(Cl)c3Cl)c(C(C)(C)C)s2)C(C)(CC(=O)OC)C1=O (stereo not drawn) | < 5 | – |
| CN(C)CCN1CCN(C(=O)c2cc(C(C)(C)C)sc2NC(=O)Nc2cccc(Cl)c2Cl)C(C)(C)C1=O | < 5 | – |
| CC(C)(C)c1cc(C(=O)N2CCN(CC(N)=O)C(=O)C2(C)C)c(NC(=O)Nc2cccc(Cl)c2Cl)s1 | < 5 | – |
| COc1ccc(CC(=O)N2CCN(C(=O)c3cc(C(C)(C)C)sc3NC(=O)Nc3cccc(Cl)c3Cl)CC2)cc1 | < 5 | – |
| CN(C)CCNC(=O)CN1CCN(C(=O)c2sc(C(C)(C)C)cc2NC(=O)Nc2cccc(Cl)c2Cl)C(C)(C)C1=O | < 5 | – |
| CC(C)(C)c1nc(C(=O)N2CCC(=O)N(CCC(N)=O)CC2)c(NC(=O)Nc2cccc(Cl)c2Cl)s1 | < 5 | – |
| CC(C)(C)c1cc(C(=O)N2CCNC(=O)C2)c(NC(=O)Nc2ccc(F)c(Cl)c2Cl)s1 | < 5 | – |
| COC(=O)CN1CCN(C(=O)c2cc(C(C)(C)C)sc2NC(=O)Nc2cccc(Cl)c2Cl)C(C)(C)C1=O | < 5 | – |
| CN(C)CCN1CCN(C(=O)c2cc(C(C)(C)C)sc2NC(=O)Nc2ccccc2Cl)CCC1=O | < 5 | – |
| CC(C)(C)c1cc(C(=O)NCC(F)(F)F)c(NC(=O)Nc2cccc(Cl)c2Cl)s1 | < 5 | – |
| CN(C)CCN1CCN(C(=O)c2cc(C(C)(C)C)sc2NC(=O)Nc2ccc(F)c(F)c2Cl)C(C)(C)C1=O | < 5 | – |
| CC(C)(C)c1cc(C(=O)N2CCNC(=O)C2(C)C)c(NC(=O)Nc2cccc3c2OCO3)s1 | < 5 | – |
| O=C1CCN(C(=O)c2cc(Cl)c(C(F)(F)F)cc2NC(=O)Nc2cccc(Cl)c2Cl)CCN1 | < 5 | – |
| CONC(=O)CN1CCN(C(=O)c2cc(C(C)(C)C)sc2NC(=O)Nc2cccc(Cl)c2Cl)C(C)(C)C1=O | < 5 | – |
| CC(C)(C)c1cc(C(=O)N[C@@H]2CC(=O)NC2=O)c(NC(=O)Nc2ccc(Cl)cc2)s1 | – | 76 to 100 |
| COCOCCN1CCN(C(=O)c2cc(C(C)(C)C)sc2NC(=O)Nc2cccc(Cl)c2Cl)CCC1=O | – | 76 to 100 |
| COC(=O)CC1(C)C(=O)NCCN1C(=O)c1cc(C(C)(C)C)[nH]c1NC(=O)Nc1cccc(Cl)c1Cl (stereo not drawn) | < 5 | – |

| SMILES | IC50 [µM] | inhibition [%] |
| --- | --- | --- |
| CN(C)CCNC(=O)CN1CCN(C(=O)c2cc(C(C)(C)C)sc2NC(=O)Nc2ccc(F)c(Cl)c2Cl)C(C)(C)C1=O | < 5 | – |
| CCCNC(=O)CN1CCN(C(=O)c2cc(C(C)(C)C)sc2NC(=O)Nc2cccc(Cl)c2Cl)C(C)(C)C1=O | < 5 | – |
| CON(C)C(=O)CN1CCN(C(=O)c2cc(C(C)(C)C)sc2NC(=O)Nc2ccc(F)c(Cl)c2Cl)C(C)(C)C1=O | < 5 | – |
| CC(C)(C)c1cc(C(=O)N2CCNC(=O)CC2)c(NC(=O)Nc2ccc(OC(F)F)c(Cl)c2Cl)s1 | < 5 | – |
| COCOCCN1CCN(C(=O)c2cc(C(C)(C)C)sc2NC(=O)Nc2cccc(Cl)c2Cl)C(C)(C)C1=O | < 5 | – |
| CC(C)(C)c1cc(C(=O)N2CCNC(=O)[C@@H]2CCc2ccccc2)c(NC(=O)Nc2cccc(Cl)c2Cl)s1 | < 5 | – |
| O=C(Nc1cc(C(F)(F)F)c(Cl)cc1C(=O)N1CCS(=O)(=O)CC1)Nc1cccc(Cl)c1Cl | < 5 | – |
| CC(C)(C)OC(=O)N1CCN(C(=O)c2cc(C(C)(C)C)sc2NC(=O)Nc2cccc(Cl)c2Cl)CC1 | < 5 | – |
| CC(=O)N1CCN(C(=O)c2cc(C(C)(C)C)sc2NC(=O)Nc2cccc(Cl)c2Cl)CC1 | < 5 | – |
| CN(C)CCN1CCN(C(=O)c2[nH]c(C(C)(C)C)cc2NC(=O)Nc2cccc(Cl)c2Cl)C(C)(C)C1=O | < 5 | – |
| CC(C)(C)c1cc(C(=O)N2CCNC(=O)CC2)c(NC(=O)Nc2c(Cl)cncc2Cl)s1 | < 5 | – |
| COC(=O)CN1CCN(C(=O)c2[nH]c(C(C)(C)C)cc2NC(=O)Nc2cccc(Cl)c2Cl)C(C)(C)C1=O | < 5 | – |
| CCC1(C)C(=O)N(CC(=O)N(C)OC)CCN1C(=O)c1cc(C(C)(C)C)sc1NC(=O)Nc1cccc(Cl)c1Cl (stereo not drawn) | < 5 | – |
| CN(C)CCN1CCN(C(=O)c2cc(C(C)(C)C)sc2NC(=O)Nc2ccc(F)cc2Cl)CCC1=O | < 5 | – |
| CC(C)(C)c1cc(C(=O)N2CCC(=O)N(CCC(N)=O)CC2)c(NC(=O)Nc2cccc(Cl)c2Cl)s1 | – | 76 to 100 |
| CON(C)C(=O)CN1CCN(C(=O)c2cc(C(C)(C)C)sc2NC(=O)Nc2ccc(F)cc2Cl)CCC1=O | < 5 | – |
| CC(C)(C)c1cc(NC(=O)Nc2ccc(F)c(F)c2Cl)c(C(=O)N2CCNC(=O)C2(C)CCO)s1 (stereo not drawn) | < 5 | – |
| Cn1c(C(C)(C)C)cc(NC(=O)Nc2cccc(Cl)c2Cl)c1C(=O)N1CCNC(=O)C1(C)C | < 5 | – |
| CC(C)(C)c1cc(C(=O)N2CCNC(=O)CC2)c(NC(=O)Nc2cccc(Cl)c2Cl)[nH]1 | < 5 | – |
| CC(C)(C)c1cc(C(=O)N2CCNC(=O)C(N)C2)c(NC(=O)Nc2cccc(Cl)c2Cl)s1 (stereo not drawn) | – | 76 to 100 |
